Results taken from patent US20090076006A1, “HSP90 INHIBITORS CONTAINING A ZINC BINDING MOIETY” (priority 2007, published 2009).

Experiments:
HSP90 = target: T1, HSP90 (Homo sapiens, UniProt P07900); assay: HSP90 assay (chaperone luciferase refolding / competition binding fluorescence polarization); details: Table B does not say which of the two described
T1 construct: purchased Assay Design SPP-776F
Protocol: (a) An In Vitro Assay which Determines the Ability of a Test Compound to Inhibit Hsp90 Chaperone Activity.
The Hsp90 chaperone assay was performed to measure the ability of HSP90 protein to refold the heat-denatured luciferase protein. HSP90 was first incubated with different concentrations of test compounds in denaturation buffer (25 mM Tris, pH7.5, 8 mM MgSO4, 0.01% bovine gamma globulin and 10% glycerol) at room temperature for 30 min. Luciferase protein was added to denaturation mix and incubated at 50° C. for 8 min. The final concentration of HSP90 and luciferase in denaturation mixture were 0.375 μM and 0.125 μM respectively. A 5 μl sample of the denatured mix was diluted into 25 μl of renaturation buffer (25 mM Tris, pH7.5, 8 mM MgSO4, 0.01% bovine gamma globulin and 10% glycerol, 0.5 mM ATP, 2 mM DTT, 5 mM KCl, 0.3 μM HSP70 and 0.15 μM HSP40). The renaturation reaction was incubated at room temperature for 150 min, followed by dilution of 10 μl of the renatured sample into 90 μl of luciferin reagent (Luclite, PerkinElmer Life Science). The mixture was incubated at dark for 5 min before reading the luminescence signal on a TopCount plate reader (PerkinElmer Life Science).
(b) HSP90 Competition Binding (Fluorescence Polarization) Assay.
A fluorescein isothiocyanate (FITC) labeled GM was purchase from InvivoGen (ant-fgl-1). The interaction between HSP90 and labeled GM forms the basis for the fluorescence polarization assay. A free and fast-tumbling FITC labeled GM emits random light with respect to the plane of polarization plane of excited light, resulting in a lower polarization degree (mP) value. When GM is bound to HSP90, the complex tumble slower and the emitted light is polarized, resulting in a higher mP value. This competition binding assay was performed in 96-well plate and with each assay contained 10 and 50 nM of labeled GM and purified HSP90 protein (Assay Design, SPP-776F) respectively. The assay buffer contained 20 mM HEPES (pH 7.3), 50 mM KCl, 1 mM DTT, 50 mM MgCl2, 20 mM Na2MoO4, 0.01% NP40 with 0.1 mg/ml bovine gamma-globulin. Compounds are diluted in DMSO and added to the final assay before labeled GM with concentration range from 20 uM to 2 nM. mP value was determined by BioTek Synergy II with background subtraction after 24 hours of incubation at 4° C.

[1] = system: HDAC (HeLa nuclear extract); assay: HDAC fluorimetric assay (inhibition of HDAC enzymatic activity); assay type: biochemical; details: HDAC fluorimetric assay kit
Protocol: (c) An In Vitro Assay which Determines the Ability of a Test Compound to Inhibit HDAC Enzymatic Activity.
HDAC inhibitors were screened using an HDAC fluorimetric assay kit (AK-500, Biomol, Plymouth Meeting, Pa.). Test compounds were dissolved in dimethylsulphoxide (DMSO) to give a 20 mM working stock concentration. Fluorescence was measured on a WALLAC Victor 2 plate reader and reported as relative fluorescence units (RFU). Data were plotted using GraphPad Prism (v4.0a) and IC50's calculated using a sigmoidal dose response curve fitting algorithm. Each assay was setup as follows: Defrosted all kit components and kept on ice until use. Diluted HeLa nuclear extract 1:29 in Assay Buffer (50 mM Tris/Cl, pH 8.0, 137 mM NaCl, 2.7 mM KCl, 1 mM MgCl2). Prepared dilutions of Trichostatin A (TSA, positive control) and tested compounds in assay buffer (5× of final concentration). Diluted Fluor de Lys™ Substrate in assay buffer to 100 uM (50 fold=2× final). Diluted Fluor de Lys™ developer concentrate 20-fold (e.g. 50 μl plus 950 μl Assay Buffer) in cold assay buffer. Second, diluted the 0.2 mM Trichostatin A 100-fold in the 1× Developer (e.g. 10 μl in 1 ml; final Trichostatin A concentration in the 1× Developer=2 μM; final concentration after addition to HDAC/Substrate reaction=1 μM). Added Assay buffer, diluted trichostatin A or test inhibitor to appropriate wells of the microtiter plate. Added diluted HeLa extract or other HDAC sample to all wells except for negative controls. Allowed diluted Fluor de Lys™ Substrate and the samples in the microtiter plate to equilibrate to assay temperature (e.g. 25 or 37° C. Initiated HDAC reactions by adding diluted substrate (25 μl) to each well and mixing thoroughly. Allowed HDAC reactions to proceed for 1 hour and then stopped them by addition of Fluor de Lys™ Developer (50 μl). Incubated plate at room temperature (25° C.) for 10-15 min. Read samples in a microtiter-plate reading fluorimeter capable of excitation at a wavelength in the range 350-380 nm and detection of emitted light in the range 440-460 nm.

Compound | IC50 (HSP90) [nM] | melting point [°C] | IC50 [1] [nM]
CCNC(=O)c1noc(-c2cc(C(C)C)c(O)cc2O)c1-c1ccc(CNCCCCCCC(=O)NO)cc1 [Compound 23, 5-(2,4-dihydroxy-5-isopropylphenyl)-N-ethyl-4-(4-((7-(hydroxyamino)-7-oxoheptylamino)methyl)phenyl)isoxazole-3-carboxamide] | ≤ 100 | 126 to 128 | 100 to 1000
CC(C)c1cc(-c2onc(C(=O)NCCCC(=O)NO)c2-c2ccc(CN3CCOCC3)cc2)c(O)cc1O [Compound 25, 5-(2,4-Dihydroxy-5-isopropylphenyl)-N-(4-(hydroxyamino)-4-oxobutyl)-4-(4-(morpholinomethyl)phenyl)isoxazole-3-carboxamide] | ≤ 100 | 129 to 130 | –
COc1ccc(-c2c(C(=O)NCC3CCN(c4ncc(C(=O)NO)cn4)CC3)noc2-c2cc(Cl)c(O)cc2O)cc1 [Compound 13, 5-(5-Chloro-2,4-dihydroxyphenyl)-N-((1-(5-(hydroxycarbamoyl)pyrimidin-2-yl)piperidin-4-yl)methyl)-4-(4-methoxyphenyl)isoxazole-3-carboxamide] | 100 to 1000 | 148 to 151 | ≤ 100
CCNC(=O)c1noc(-c2cc(C(C)C)c(O)cc2O)c1-c1ccc(CN(C)CCCCCC(=O)NO)cc1 [Compound 22, 5-(2,4-Dihydroxy-5-isopropylphenyl)-N-ethyl-4-(4-(((6-(hydroxyamino)-6-oxohexyl)(methyl)amino)methyl)phenyl)isoxazole-3-carboxamide] | ≤ 100 | 113 to 115 | 1000 to 10000
COc1ccc(-c2c(C(=O)N3CCN(c4ncc(C(=O)NO)cn4)CC3)noc2-c2cc(Cl)c(O)cc2O)cc1 [Compound 11, 2-(4-(5-(5-chloro-2,4-dihydroxyphenyl)-4-(4-methoxyphenyl)isoxazole-3-carbonyl)piperazin-1-yl)-N-hydroxypyrimidine-5-carboxamide] | 100 to 1000 | 186 to 190 | ≤ 100
CC(C)c1cc(-c2onc(C(=O)NCCCCCCC(=O)NO)c2-c2ccc(CN3CCOCC3)cc2)c(O)cc1O [Compound 28, 5-(2,4-Dihydroxy-5-isopropylphenyl)-N-(7-(hydroxyamino)-7-oxoheptyl)-4-(4-(morpholinomethyl)phenyl)isoxazole-3-carboxamide] | ≤ 100 | 109 to 111 | ≤ 100
CCNC(=O)c1noc(-c2cc(C(C)C)c(O)cc2O)c1-c1ccc(CN(C)CCCC(=O)NO)cc1 [Compound 18, 5-(2,4-dihydroxy-5-isopropylphenyl)-N-ethyl-4-(4-(((4-(hydroxyamino)-4-oxobutyl)(methyl)amino)methyl)phenyl)isoxazole-3-carboxamide] | ≤ 100 | 132 to 134 | ≥ 10000
CCNC(=O)c1noc(-c2cc(C(C)C)c(O)cc2O)c1-c1ccc(CN(C)CCCCCCC(=O)NO)cc1 [Compound 24, 5-(2,4-Dihydroxy-5-isopropylphenyl)-N-ethyl-4-(4-(((7-(hydroxyamino)-7-oxoheptyl)(methyl)amino)methyl)phenyl)isoxazole-3-carboxamide] | ≤ 100 | 118 to 119 | 100 to 1000
COc1ccc(-c2c(C(=O)NCCCCCCC(=O)NO)noc2-c2cc(Cl)c(O)cc2O)cc1 [Compound 9, 5-(5-chloro-2,4-dihydroxyphenyl)-N-(7-(hydroxylamino)-7-oxoheptyl)-4-(4-methoxyphenyl)isoxazole-3-carboxamide] | ≤ 100 | – | ≤ 100
CCNC(=O)c1noc(-c2cc(Cl)c(O)cc2O)c1-c1ccc(OCCCCCCC(=O)NO)cc1 [Compound 4, 5-(5-chloro-2,4-dihydroxyphenyl)-N-ethyl-4-(4-(7-(hydroxylamino)-7-oxoheptyloxy)phenyl)isoxazole-3-carboxamide] | ≤ 100 | – | 100 to 1000
CCNC(=O)c1noc(-c2cc(C(C)C)c(O)cc2O)c1-c1ccc(CN(C)CCC(=O)NO)cc1 [Compound 16, 5-(2,4-dihydroxy-5-isopropylphenyl)-N-ethyl-4-(4-(((3-(hydroxyamino)-3-oxopropyl)(methyl)amino)methyl)phenyl)isoxazole-3-carboxamide] | ≤ 100 | 120 to 122 | ≥ 10000
CCNC(=O)c1noc(-c2cc(C(C)C)c(O)cc2O)c1-c1ccc(CNCCC(=O)NO)cc1 [Compound 15, 5-(2,4-dihydroxy-5-isopropylphenyl)-N-ethyl-4-(4-((3-(hydroxyamino)-3-oxopro-pylamino)methyl)phenyl)isoxazole-3-carboxamide] | ≤ 100 | 146 to 148 | 1000 to 10000
COc1ccc(-c2c(C(=O)NCCCCCCCC(=O)NO)noc2-c2cc(Cl)c(O)cc2O)cc1 [Compound 10, 5-(5-chloro-2,4-dihydroxyphenyl)-N-(8-(hydroxylamino)-8-oxooctyl)-4-(4-methoxyphenyl)isoxazole-3-carboxamide] | ≤ 100 | – | ≤ 100
CCNC(=O)c1noc(-c2cc(Cl)c(O)cc2O)c1-c1ccc(OCCCCCC(=O)NO)cc1 [Compound 3, 5-(5-Chloro-2,4-dihydroxyphenyl)-N-ethyl-4-(4-(6-(hydroxyamino)-6-oxohexyloxy)phenyl)isoxazole-3-carboxamide] | ≤ 100 | – | 100 to 1000
COc1ccc(-c2c(C(=O)NCCCCCC(=O)NO)noc2-c2cc(Cl)c(O)cc2O)cc1 [Compound 8, 5-(5-chloro-2,4-dihydroxyphenyl)-N-(6-(hydroxylamino)-6-oxohexyl)-4-(4-methoxyphenyl)isoxazole-3-carboxamide] | ≤ 100 | – | 100 to 1000
CCNC(=O)c1noc(-c2cc(Cl)c(O)cc2O)c1-c1ccc(OCCCCC(=O)NO)cc1 [Compound 2, 5-(5-Chloro-2,4-dihydroxyphenyl)-N-ethyl-4-(4-(5-(hydroxyamino)-5-oxopentyloxy)phenyl)isoxazole-3-carboxamide] | ≤ 100 | – | 1000 to 10000
COc1ccc(-c2c(C(=O)NCCC(=O)NO)noc2-c2cc(Cl)c(O)cc2O)cc1 [Compound 5, 5-(5-chloro-2,4-dihydroxyphenyl)-N-(3-(hydroxyl-amino)-3-oxopropyl)-4-(4-methoxyphenyl)isoxazole-3-carboxamide] | ≤ 100 | – | 1000 to 10000
CCNC(=O)c1noc(-c2cc(Cl)c(O)cc2O)c1-c1ccc(OCCCC(=O)NO)cc1 [Compound 1, 5-(5-chloro-2,4-dihydroxyphenyl)-N-ethyl-4-(4-(4-(hydroxyamino)-4-oxobutoxy)phenyl)isoxazole-3-carboxamide] | ≤ 100 | – | 100 to 1000
COc1ccc(-c2c(C(=O)NCCCC(=O)NO)noc2-c2cc(Cl)c(O)cc2O)cc1 [Compound 6, 5-(5-chloro-2,4-dihydroxyphenyl)-N-(4-(hydroxyamino)-4-oxobutyl)-4-(4-methoxyphenyl)isoxazole-3-carboxamide] | ≤ 100 | – | 1000 to 10000
